From patent US7816408B2, “Calcium receptor active compounds” (NPS Pharmaceuticals, Inc., priority 2002, dated 2010)

Legend:
human calcium receptor = target: T1, human calcium receptor (Homo sapiens, UniProt P41180); assay: Activity on calcium receptors: fluo-3 fluorescence in HEK293 cells transfected with human calcium receptor gene; assay type: cell-based; conditions: HEK293 cells transfected with plasmid pHuPCaR4.0 (human calcium receptor gene), loaded with fluo-3; 1 mM CaCl2, 1 mM MgCl2
T1 construct: expressed in transfected cells; host or cells: HEK293
T1 sequence (P41180 20-1078): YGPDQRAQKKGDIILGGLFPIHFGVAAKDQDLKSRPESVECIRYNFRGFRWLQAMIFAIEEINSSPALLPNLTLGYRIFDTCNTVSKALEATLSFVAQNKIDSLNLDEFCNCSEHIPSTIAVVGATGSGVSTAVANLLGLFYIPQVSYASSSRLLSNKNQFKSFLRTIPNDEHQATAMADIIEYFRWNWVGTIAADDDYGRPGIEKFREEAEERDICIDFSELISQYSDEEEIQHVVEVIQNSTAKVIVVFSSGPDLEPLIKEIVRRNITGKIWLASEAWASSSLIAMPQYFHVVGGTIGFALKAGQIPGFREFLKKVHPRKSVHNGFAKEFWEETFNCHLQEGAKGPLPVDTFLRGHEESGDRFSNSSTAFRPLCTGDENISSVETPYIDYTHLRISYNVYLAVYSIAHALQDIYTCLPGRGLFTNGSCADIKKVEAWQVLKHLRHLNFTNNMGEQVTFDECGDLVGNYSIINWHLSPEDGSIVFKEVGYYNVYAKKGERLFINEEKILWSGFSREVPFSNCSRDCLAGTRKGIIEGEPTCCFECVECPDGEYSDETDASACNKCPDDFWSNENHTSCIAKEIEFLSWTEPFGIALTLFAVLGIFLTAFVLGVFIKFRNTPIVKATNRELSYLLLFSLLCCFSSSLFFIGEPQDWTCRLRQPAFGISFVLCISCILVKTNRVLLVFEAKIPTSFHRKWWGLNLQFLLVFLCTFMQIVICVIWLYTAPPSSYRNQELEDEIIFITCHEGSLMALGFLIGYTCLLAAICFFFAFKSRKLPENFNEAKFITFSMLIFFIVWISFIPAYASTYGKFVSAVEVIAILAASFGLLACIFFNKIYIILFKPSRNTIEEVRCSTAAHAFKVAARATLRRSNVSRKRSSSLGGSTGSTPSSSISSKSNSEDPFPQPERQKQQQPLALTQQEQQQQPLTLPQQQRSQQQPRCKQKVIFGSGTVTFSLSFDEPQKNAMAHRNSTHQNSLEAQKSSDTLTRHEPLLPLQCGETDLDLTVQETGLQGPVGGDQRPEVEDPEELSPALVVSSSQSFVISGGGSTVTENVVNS
Method in brief: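 HEK293 cells transfected with human calcium receptor plasmid, loaded 1 h at 37 °C with about 5 μM fluo-3/AM. Cells then rinsed into HEPES-buffered HBSS with 1 mM CaCl2 and 1 mM MgCl2. Fluorescence read at 485/540 nm after compound addition.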

normal male SD rats = assay: Plasma Ca^2+ level of rats after single oral administration; assay type: in vivo; conditions: rat, mean of six animals; for Plasma Ca^2+ (mmol/l) 0 hr: 0 hr = before oral administration of 30 μmol/kg; for Plasma Ca^2+ (mmol/l) 0 hr / Plasma Ca^2+ (mmol/l) 1 hr / Plasma Ca^2+ (mmol/l) 2 hr / Plasma Ca^2+ (mmol/l) 4 hr / Plasma Ca^2+ (mmol/l) 8 hr / Plasma Ca^2+ (mmol/l) 24 hr / Plasma Ca^2+ (mmol/l) 27 hr (footnote *b, 24 hr): vehicle 10% cyclodextrin (** 1% sodium-CMC); for Plasma Ca^2+ (mmol/l) 1 hr: 1 hr after single oral dose 30 μmol/kg; for Plasma Ca^2+ (mmol/l) 2 hr: 2 hr after single oral dose 30 μmol/kg; for Plasma Ca^2+ (mmol/l) 4 hr: 4 hr after single oral dose 30 μmol/kg; for Plasma Ca^2+ (mmol/l) 8 hr: 8 hr after single oral dose 30 μmol/kg; for Plasma Ca^2+ (mmol/l) 24 hr: 24 hr after single oral dose 30 μmol/kg; for Plasma Ca^2+ (mmol/l) 27 hr (footnote *b, 24 hr): 27 hr after single oral dose 30 μmol/kg; for Plasma Ca^2+ (mmol/l) 48 hr: 48 hr after single oral dose 30 μmol/kg, vehicle 10% cyclodextrin
Method in brief: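 Normal male SD rats (n=6/group) received a single oral dose of 30 μmol/kg in 10% cyclodextrin or, for some compounds, 1% sodium-CMC; vehicle controls received 2.5 ml/kg. Tail blood was drawn pre-dose and at 30 min and 1, 2, 4, 8 and 24 h for plasma Ca^2+ and serum PTH. PTH was compared with vehicle by Steel's test.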

SMILES | EC50 (human calcium receptor) [nM] | Plasma Ca^2+ (mmol/l) 0 hr (normal male SD rats) [mmol/L] | Plasma Ca^2+ (mmol/l) 1 hr (normal male SD rats) [mmol/L] | Plasma Ca^2+ (mmol/l) 2 hr (normal male SD rats) [mmol/L] | Plasma Ca^2+ (mmol/l) 4 hr (normal male SD rats) [mmol/L] | Plasma Ca^2+ (mmol/l) 8 hr (normal male SD rats) [mmol/L] | Plasma Ca^2+ (mmol/l) 24 hr (normal male SD rats) [mmol/L] | Plasma Ca^2+ (mmol/l) 27 hr (footnote *b, 24 hr) (normal male SD rats) | Plasma Ca^2+ (mmol/l) 48 hr (normal male SD rats) [mmol/L]
CCOc1ccc2sc(SCCCCN[C@H](C)c3cccc4ccccc34)nc2c1 [Compound K-2271] | 140 | 1.428 | 1.278 | 1.227 | 1.128 | 1.197 |  |  | 
C[C@@H](NCCC(=O)N(Cc1ccc(OC(F)(F)F)cc1)Cc1ccc(Cl)c(Cl)c1)c1cccc2ccccc12 [Compound K-2272, N1-(3,4-dichlorobenzyl)-N1-[4-(trifluoromethoxy)benzyl)-3-{[(1R)-1-(1-naphthyl)ethyl]-amino}propanamide] | 52 |  | 1.382 | 1.237 | 1.075 | 1.022 | 1.240 |  | 
C[C@@H](NCCCCSc1cc(Cl)c(Cl)cc1Cl)c1cccc2ccccc12 [Compound K-2281, N-[(1R)-1-(1-naphthyl)ethyl]-N-{4-[(2,4,5-trichlorophenyl)thio]butyl}amine] | 430 |  | 1.380 | 1.245 | 1.103 | 0.993 |  | 1.230*^b mmol/l | 
C[C@@H](NCCCCCSc1cc(Cl)c(Cl)cc1Cl)c1cccc2ccccc12 [Compound K-2282, N-[(1R)-1-(1-naphthyl)ethyl]-N-{5-[(2,4,5-trichlorophenyl)thio]pentyl}amine] | 340 |  | 1.425 | 1.298 | 1.168 | 1.078 |  | 1.230*^b mmol/l | 
C[C@@H](NCCC(=O)N(Cc1ccc(Cl)cc1)Cc1ccc(OC(F)(F)F)cc1)c1cccc2ccccc12 [Compound K-2283, N1-(4-chlorobenzyl)-N1-[4-(trifluoromethoxy)benzyl)-3-{[(1R)-1-(1-naphthyl)ethyl]-amino}propanamide] | 93 |  | 1.395 | 1.305 | 1.210 | 1.253 |  |  | 
C[C@@H](NCCCCCSc1c(F)c(F)c(C(F)(F)F)c(F)c1F)c1cccc2ccccc12 [Compound K-2284, N-[(1R)-1-(1-naphthyl)ethyl]-N-(5-{[2,3,5,6-tetrafluoro-4-(trifluoromethyl)phenyl]thio}pentyl) amine] | 360 |  | 1.377 | 1.267 | 1.152 | 1.102 |  |  | 
C[C@@H](NCCCCSc1ccc(OC(F)(F)F)cc1)c1cccc2ccccc12 [Compound K-2287, N-[(1R)-1-(1-naphthyl)ethyl]-N-(4-{[4-(trifluoromethoxy)phenyl)thio]butyl)amine] | 62 |  | 1.180 | 1.042 | 0.955 | 0.950 | 1.200 |  | 1.392
COc1ccc(CN(Cc2ccc(Cl)cc2)C(=O)CCN[C@H](C)c2cccc3ccccc23)cc1 [Compound K-2289, N1-(4-chlorobenzyl)-N1-(4-methoxybenzyl)-3-{[(1R)-1-(1-naphthyl)ethyl]amino}propanamide] | 74 |  | 1.270 | 1.173 | 1.003 | 1.093 |  |  | 
COc1ccc(CN(Cc2ccc(C(F)(F)F)cc2)C(=O)CCN[C@H](C)c2cccc3ccccc23)cc1 [Compound K-2290, N1-(4-methoxybenzyl)-N1-[4-(trifluoromethyl)benzyl)-3-{[(1R)-1-(1-naphthyl)ethyl]amino}propanamide] | 100 |  | 1.428 | 1.248 | 1.063 | 1.055 |  |  | 
C[C@@H](NCCC(=O)N(Cc1ccc(Cl)cc1)Cc1ccc2ccccc2c1)c1cccc2ccccc12 [Compound K-2291, N1-(4-chlorobenzyl)-N1-(2-naphthylmethyl)-3-{[(1R)-1-(1-naphthyl)ethyl]amino}propanamide] | 81 |  | 1.298 | 1.247 | 1.130 | 1.132 |  |  | 
C[C@@H](NCCCCCCCSc1c(F)c(F)c(C(F)(F)F)c(F)c1F)c1cccc2ccccc12 [Compound K-2292, N-[(1R)-1-(1-naphthyl)ethyl]-N-(7-{[2,3,5,6-tetrafluoro-4-(trifluoromethyl)phenyl]thio}heptyl)amine] | 74 |  | 1.375 | 1.252 | 1.152 | 1.108 |  |  | 

The next lines start with results.

EC50 (human calcium receptor) [nM] | SMILES | Plasma Ca^2+ (mmol/l) 0 hr (normal male SD rats) [mmol/L] | Plasma Ca^2+ (mmol/l) 1 hr (normal male SD rats) [mmol/L] | Plasma Ca^2+ (mmol/l) 2 hr (normal male SD rats) [mmol/L] | Plasma Ca^2+ (mmol/l) 4 hr (normal male SD rats) [mmol/L] | Plasma Ca^2+ (mmol/l) 8 hr (normal male SD rats) [mmol/L] | Plasma Ca^2+ (mmol/l) 24 hr (normal male SD rats) [mmol/L] | Plasma Ca^2+ (mmol/l) 27 hr (footnote *b, 24 hr) (normal male SD rats) | Plasma Ca^2+ (mmol/l) 48 hr (normal male SD rats) [mmol/L]
630 | COc1cccc(SCCCCCN[C@H](C)c2cccc3ccccc23)c1 [Compound K-2279, N-{[5-(3-methoxyphenyl)thio]pentyl}N-[(1R)-1-(1-naphthyl)ethyl]amine] | 1.443 | 1.200 | 1.155 | 1.130 | 1.210 | 1.445 |  | 
270 | COc1ccc(SCCCCCN[C@H](C)c2cccc3ccccc23)cc1 [Compound K-2280] | 1.443 | 1.233 | 1.167 | 1.077 | 1.142 | 1.405 |  | 
620 | C[C@@H](NCCCCCCSc1ccc(Cl)cc1)c1cccc2ccccc12 [Compound K-2286, N-{6-[(4-chlorophenyl)thio]hexyl}-N-[(1R)-1-(1-naphthyl)ethyl]amine] |  | 1.318 | 1.218 | 1.088 | 1.098 | 1.390 |  | 1.412
140 | C[C@@H](NCCCCCSc1ccc(OC(F)(F)F)cc1)c1cccc2ccccc12 [Compound K-2288, N-[(1R)-1-(1-naphthyl)ethyl]-N-(5-{[4-(trifluoromethoxy)phenyl)thio]pentyl)amine] |  | 1.190 | 1.057 | 0.955 | 0.905 | 1.162 |  | 1.387
280 | C[C@@H](NCCCCSc1ccc(Cl)cc1)c1cccc2ccccc12 [Compound K-2293, N-{4-[(4-chlorophenyl)thio]butyl}-N-[(1R)-1-(1-naphthyl)ethyl]amine] |  | 1.245 | 1.152 | 1.068 | 1.088 |  |  | 
